Laboratory results reported in ChEMBL document CHEMBL1268839, “Small molecules targeting the interaction between HIV-1 integrase and LEDGF/p75 cofactor” (Bioorg Med Chem, 2010).

What was measured:
[1] = Inhibition of HIV1 His6-tagged integrase-recombinant flag-tagged LEDGF/p75 interaction at 100 uM after 1 hr by alphascreen assay
[2] = Inhibition of HIV-1 His6-tagged integrase-recombinant flag-tagged LEDGF/p75 interaction 1 hr by alphascreen assay
[3] = Selectivity ratio of compound IC50 to CHIBA-3003 IC50 for HIV-1 His6-tagged integrase-recombinant flag-tagged LEDGF/p75 interaction

| Compound | inhibition [1] [%] | IC50 [2] [µM] | Ratio IC50 [3] |
| --- | --- | --- | --- |
| Cc1ccc(C)c(Cn2cc(C(=O)/C=C(\O)C(=O)O)c3c(O)cccc32)c1 | 40 |  |  |
| Cc1ccc(Cn2cc(C(=O)C3=C(O)C(=O)OC3)c3c(O)cccc32)c(C)c1 | 96 | 11.7 |  |
| Cc1ccccc1Cn1cc(C(=O)/C=C(\O)C(=O)O)c2c(O)cccc21 | 20 |  |  |
| CCOC(=O)/C(O)=C/C(=O)c1cn(Cc2ccccc2C)c2cccc(O)c12 | 24 |  |  |
| CCOC(=O)/C(O)=C/C(=O)c1cn(Cc2cccc(C)c2)c2cccc(O)c12 | 45 |  |  |
| Cc1cccc(Cn2cc(C(=O)C3=C(O)C(=O)OC3)c3c(O)cccc32)c1C | 70 |  |  |
| CCOC(=O)/C(O)=C/C(=O)c1cn(Cc2ccc(C)cc2C)c2cccc(O)c12 | 58 |  |  |
| Cc1cc(C)cc(Cn2cc(C(=O)/C=C(\O)C(=O)O)c3c(O)cccc32)c1 | 94 | 3.5 | 10 |
| Cc1ccc(Cn2cc(C(=O)C3=C(O)C(=O)OC3)c3c(O)cccc32)cc1 | 81 | 8.7 |  |
| O=C(O)/C(O)=C/C(=O)c1cn(Cc2ccc(F)cc2)c2cccc(O)c12 | 56 | 76 |  |
| Cc1cc(C)cc(Cn2cc(C(=O)C3=C(O)C(=O)OC3)c3c(O)cccc32)c1 | 69 | 123 |  |
| Cc1cccc(Cn2cc(C(=O)/C=C(\O)C(=O)O)c3c(O)cccc32)c1 | 16 |  |  |
| Cc1ccc(C)c(Cn2cc(C(=O)C3=C(O)C(=O)OC3)c3c(O)cccc32)c1 | 38 |  |  |
| CCOC(=O)/C(O)=C/C(=O)c1cn(Cc2ccc(C)cc2)c2cccc(O)c12 | 60 | 171 |  |
| CCOC(=O)/C(O)=C/C(=O)c1cn(Cc2c(C)cccc2C)c2cccc(O)c12 | 47 |  |  |
| CCOC(=O)/C(O)=C/C(=O)c1cn(Cc2cc(C)cc(C)c2)c2cccc(O)c12 | 52 |  |  |
| CCOC(=O)/C(O)=C/C(=O)c1cn(Cc2cc(C)ccc2C)c2cccc(O)c12 | 33 |  |  |
| CCOC(=O)/C(O)=C/C(=O)c1cn(Cc2cccc(C)c2C)c2cccc(O)c12 | 57 |  |  |
| O=C(O)/C(O)=C/C(=O)c1c[nH]c2cccc(O)c12 | 71 | 35 |  |
| Cc1cccc(Cn2cc(C(=O)C3=C(O)C(=O)OC3)c3c(O)cccc32)c1 | 61 | 53.3 |  |
| Cc1ccc(Cn2cc(C(=O)/C=C(\O)C(=O)O)c3c(O)cccc32)c(C)c1 | 55 |  |  |
| Cc1cccc(C)c1Cn1cc(C(=O)C2=C(O)C(=O)OC2)c2c(O)cccc21 | 70 | 7.5 |  |
| Cc1ccc(Cn2cc(C(=O)/C=C(\O)C(=O)O)c3c(O)cccc32)cc1 | 86 | 68 |  |
| Cc1cccc(Cn2cc(C(=O)/C=C(\O)C(=O)O)c3c(O)cccc32)c1C | 93 | 28.5 |  |
| Cc1ccccc1Cn1cc(C(=O)C2=C(O)C(=O)OC2)c2c(O)cccc21 | 34 |  |  |
| Cc1cccc(C)c1Cn1cc(C(=O)/C=C(\O)C(=O)O)c2c(O)cccc21 | 72 |  |  |
